Results as given in PMC6054100, “Exploring the chemical space of the lysine-binding pocket of the first kringle domain of hepatocyte growth factor/scatter factor (HGF/SF) yields a new class of inhibitors of HGF/SF-MET binding” (Chemical Science, 2015).
Like-named read-outs stand apart in the source and are kept apart here.

Experiments:
NK1 [1] = target: T1, NK1 (Homo sapiens, UniProt P14210); test: SPR steady-state binding to immobilized NK1 (Biacore T100); design: made in house; host or cells: Pichia pastoris
T1 sequence (P14210 32-210 isoform P14210-6 limits assumed): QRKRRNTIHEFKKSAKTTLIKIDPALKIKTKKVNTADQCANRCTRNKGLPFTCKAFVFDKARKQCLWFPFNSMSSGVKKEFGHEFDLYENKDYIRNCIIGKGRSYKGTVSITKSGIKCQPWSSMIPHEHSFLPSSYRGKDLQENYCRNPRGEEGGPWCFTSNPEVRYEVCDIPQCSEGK
Protocol: Binding constants of piperazine-like compounds and fragments were determined using a Biacore T100 instrument. NK1 was immobilized on a CM5 chip by amine coupling to a density of 6000 RU. Compounds were stored as 100 mM stock solutions in water and serial dilutions were prepared in the running buffer (PBS pH 7.4, 0.05% Tween 20). The compound solutions were injected onto the surface of the chip at a flow rate of 30 μL min^–1, contact time was 1 min and dissociation time 1 min. Sensorgrams were analysed using the Biacore T100 evaluation software and the binding constants determined.

NK1 [2] = target: T1, NK1; test: SPR fragment library screening against NK1; format: binding; design: made in house; host or cells: Pichia pastoris; conditions: for Ranking order: based on fragment screening, rank among the 71 NK1 hits (ESI Tables S3-S7); for SPR response: normalised relative value against NK1
Protocol: Supplementary Materials and Methods
Fragment library screening and data analysis
Met567 (soluble truncated f ragment of the MET ectodomain, residues 25- 567), NK1 and t he SPH domain were immobilized on CM5 chips by amine coupling. NK1 was diluted into 10 m M phosphate pH 7.0 and the SPH domain into 10 mM acetate pH 5.5 to a final concentration of 2.5 μM and 1 μM, respectively, for coupling. The immobilization wizard within the Biacore T100 software was set to “aim for immobiliz ed level” of 8000 RU to achieve complete saturation of the chip surface.
W ith minor deviations, the procedure and conditions outlined below were used f or a ll screening s of an in-house fragment library of 1338 members against individual target proteins. The running buffer was PBS pH 7.4, 0.05% Tween 20, 0.25% DMSO (1% DMSO for Met567). Fragments were stored as 100 mM stock solutions in DMSO. Prior to screening, fragment samples were diluted to 500 μM (1 mM f or Met567) in running buffer.
Screening was performed in 96- we ll plates at a flow rate of 30 μl min-1 with 1 min sample injection f ollowed by dissociation f or 1 min and surf ace regeneration using 1 M NaCl f or 30 […]
post-regeneration baseline exceeded the pre- sample baseline by more than 10 RU, a second regeneration cycle with 50% ethylene glycol was used. In order to be able to correct for small variations in DMSO concentration between samples, eight solvent samples ranging from 0.012 to 1.5% DMSO were injected every 40th cycle. To monitor the binding capacity of the NK1, SPH and Met567 surfaces throughout the screening, injections of 500 μM HEPES (NK1), 0.25 μM Met567 (SPH) and 0.2 μM NK1 and 1% DMSO (Met567) were carried out every 40th cycle. The flow cell temperature was 25°C. NK1 and the SPH domain were immobilized on the same chip (channels 2 and 3 respectively) and were theref ore screened in parallel. Met567 was screened separately and results are published in an accompanying paper (W in t er et al. 2015, in revision).
For data analysis, fir st, all responses were reference and solvent corrected. 1 Next, equilibrium binding for every fragment was determined and hits established by applying several filters: sensorgram shape, upper and lower threshold. Typical sensorgrams from fragment screening show “square curves” in SPR due to the fast on and off rates and fragments not showing this response were discarded from further analysis. Binding levels are represented as response units (RU) but the SPR signal is a convolution of multiple parameters including target coupling density, target -binding activity, target molecular weight and molecular weight of each injected fragment. To be able to identif y hits accurately and to be able to compare responses between different plates and targets, data were normalised against these factors. First the theoretical maximum response for each fragment was calculated using equation 1:
RRmmm = CCCCCCCC ddCdCdd× MMffmCmdCd (Equation 1)
This RUmax value diff ers for each protein target because it depends on the molecular weight of the protein and the amount of protein immobilized on the chip (coupling density). The RUmax was then used to calculate the normalised relative SPR response:
NNNNNNNNNN NNNNr NrN SSR NNNrNrNN = RRcppppcppc× 100% (Equation 2) […]
fragment should cause upon binding. 100% response would be 1:1 binding wit h levels above 100% implying over-stoichiometric binding. […]
Fragment library screening to identify small molecule binders

[3] = steady-state binding constant from SPR, MB605-related compounds (Table 4), read-out: KD
[4] = fragments 500 μM (ESI Tables S3-S7)
[5] = initial fragment screening, fragments 500 μM (Table 3)
[6] = steady-state binding constant from SPR, fragment hits (Table 3, text), read-out: KD
[7] = steady-state binding constant from SPR (ESI Tables S3-S7), read-out: KD

Structure (SMILES)	Ranking order (NK1 [2])	SPR response (NK1 [2]; [4]) [%]	further results
O=C(O)CCc1ccccc1 [501-520-0, hydrocinnamic acid]			Kd (NK1 [1]; [3]): 2200 ± 900 µM
O=P(O)(O)CCc1ccccc1 [4672-30-4, 2-phenylethyl phosphonic acid]			Kd (NK1 [1]; [3]): 2200 ± 400 µM
O=C(O)CCc1cccs1 [5928-51-8, 2-thiophenepropanoic acid]			Kd (NK1 [1]; [3]): 1100 ± 300 µM
c1ccc2[nH]ncc2c1 [AT0381]	44	53	Kd (NK1 [1]; KD): 740 ± 60 µM; SPR response (NK1 [2]; [5]): 53%
O=C(O)c1ccc2[nH]ncc2c1 [AT0541]	38	56	
Nc1ncccn1 [CA023]	46	52	Kd (NK1 [1]; [6]): 770 ± 60 µM; SPR response (NK1 [2]; [5]): 52%
CC1(C(=O)O)CC2C=CC1C2 (centres unmarked) [MB385]	42	54	
Cc1cccc(CO)n1 [MB389]	23	72	Kd (NK1 [1]; [7]): 4320 µM
Nc1ccc(F)cc1F [MB396]	18	83	Kd (NK1 [1]; [7]): 1100 µM
Cc1cc(N)no1 [MB397]	20	81	
Nc1ccncc1 [MB404]	5	118	Kd (NK1 [1]; [7]): 2800 µM
OC12CC3CC(CC(C3)C1)C2 [MB405]	40	56	
Nc1cccc(OC(F)(F)F)c1 [MB406]	54	42	
Nc1cccc(S(N)(=O)=O)c1 [MB409]	59	36	
NC(=O)c1ccc(-c2csnn2)cc1 [MB414]	50	50	
CCOC(=O)c1cnc2n(c1=O)CCS2 [MB415]	58	37	
O=C(O)c1coc2c1C(=O)CCC2 [MB417]	17	87	Kd (NK1 [1]; [6]): 420 ± 40 µM; SPR response (NK1 [2]; [5]): 87%
Cc1nc(C(C)(C)C)cs1 [MB887]	32	62	
Cc1nn(C)c(C)c1N [MB893]	36	59	Kd (NK1 [1]; [7]): 1500 µM
COc1cccc(OC)c1SC [MB894]	51	49	
Cc1nc(CC(=O)O)cs1 [MB895]	45	53	Kd (NK1 [1]; [6]): 430 ± 50 µM; SPR response (NK1 [2]; [5]): 53%
O=C(O)c1ccccc1C(=O)c1ccc(F)cc1 [MB900]	69	28	

Structure (SMILES)	Ranking order (NK1 [2])	SPR response (NK1 [2]; [4]) [%]	further results
COC(=O)c1sc(C(C)(C)C)cc1N [MB914]	63	34	
N#Cc1ccsc1N [MB915]	24	71	Kd (NK1 [1]; [7]): 1600 µM
COC(=O)c1scc(C)c1Cl [MB916]	64	34	
Cc1csc(C(=O)O)c1 [MB921]	52	49	
FC(F)(F)c1cc[nH]n1 [MB925]	48	52	Kd (NK1 [1]; [7]): 1300 µM
Cn1ccc(C(F)(F)F)n1 [MB926]	66	30	
Cc1cc(N)n(C)n1 [MB935]	41	54	Kd (NK1 [1]; [7]): 1000 µM
Cc1cc(N)[nH]n1 [MB936]	39	56	Kd (NK1 [1]; [7]): 30000 µM
N#CCCNCC1CCCO1 (centres unmarked) [MB975]	65	33	
Cc1ncsc1C(=O)O [MB996]	56	38	
CNCc1ccncc1 [MB1003]	6	107	Kd (NK1 [1]; [7]): 6400 µM
CC1CCN(C(=O)C2CCCCN2)CC1 (centres unmarked) [MB1015]	60	35	
CCC1CCC(N)CC1 (centres unmarked) [MB1016]	61	35	
CC(C)(N)CN1CCCC1 [MB1017]	71	26	
CN(C)C(=O)c1ccc2nccnc2c1 [MB1058]	29	63	
CN(C)C(=O)C1CCOCC1 [MB1065]	57	38	
O=C(C1CCOCC1)N1CCCCC1 [MB1066]	62	34	
O=C(C1CCCCO1)N1CCCC1 (centres unmarked) [MB1067]	68	28	
NC(=S)N1CCOCC1 [MB1082]	43	53	Kd (NK1 [1]; [6]): 370 ± 40 µM; SPR response (NK1 [2]; [5]): 53%
Nc1ccc(OC(F)(F)F)cc1 [MB1100]	70	27	
O=C(O)C1CCNCC1 [MB1129]	67	30	
Cc1noc(N)c1C [MB1136]	55	39	

Structure (SMILES)	Ranking order (NK1 [2])	SPR response (NK1 [2]; [4]) [%]	further results
NC(=O)Cc1ccc(O)cc1 [MB1174]	53	43	
CSc1ccc(C(=O)O)s1 [MB1217]	49	50	
NC(=S)c1ncc(C(F)(F)F)cc1N1CCCC1 [MB1218]	37	57	Kd (NK1 [1]; [7]): 17300 µM
Cc1nc(-c2ccc(C#N)cc2)cs1 [MB1236]	19	83	Kd (NK1 [1]; [7]): 1200 µM
Cc1ccsc1CN [MB1237]	4	118	Kd (NK1 [1]; [7]): 4200 µM
Cc1nc(C#N)cs1 [MB1250]	3	126	Kd (NK1 [1]; [7]): 1800 µM
N#CCOc1cccc(C(F)(F)F)c1 [MB1251]	27	66	
Cc1nc(C(N)=S)cs1 [MB1252]	10	101	Kd (NK1 [1]; [7]): 5200 µM
COC(=O)c1ccccc1F [MB1253]	11	98	Kd (NK1 [1]; [7]): 2900 µM
Cc1ccc(C#N)c(=O)[nH]1 [MB1260]	8	105	Kd (NK1 [1]; [7]): 5600 µM
CC(=O)c1ccc(OC(F)(F)F)cc1 [MB1291]	26	68	
COC(=O)c1ccccc1OC(F)(F)F [MB1292]	30	63	
CCc1cccc(C(C)=O)c1 [MB1300]	14	93	
COC(=O)c1ccc(F)cc1Cl [MB1301]	25	70	
COC(=O)c1ccc(C)c(Cl)c1 [MB1307]	31	62	
COC(=O)CSc1ccccc1 [MB1308]	34	60	
CC(=O)NCc1cccnc1 [MB1317]	35	60	
NC(=O)Cc1ccc(F)cc1Cl [MB1321]	28	65	
O=C(O)CCc1ccc(-c2ccccc2F)o1 [T5445870]			Kd (NK1 [1]; [3]): 2100 ± 300 µM
O=C(O)CCc1cc2ccccc2o1 [T5480685]			Kd (NK1 [1]; [3]): 700 ± 200 µM
